Broadly, the IC50 is the concentration that inhibits the measured activity by half.

The subject of this test is S. Typhi PhoP-promoter GFP reporter, fluorescence, 4 h. Briefly: modified counter assay using GFP fluorescence, PhoP regulon inhibitor project, dose response (AID 1985).

Each structure is given as a SMILES string.

For the compound `COC(=O)C1C(O)C(C)C(O)C(C)/C=C\C=C(/C)C(=O)Nc2c(C)c(OC(C)=O)c3c(c2O)C(=O)C(C)=C2OCOC(=C23)/C(C)=C/C(C)(O)C(O)C(C)C1O` (centres undefined), the half-maximal inhibitory concentration (IC50) is 24.4 µM.
As for `CCn1cc(C(=O)O)c(=O)c2cc(F)c(N3CCN(C(=S)NC(=O)c4ccccc4)CC3)cc21`, the IC50 is 24 µM.
As for `C#CCOCCOCCOCCNc1nc(N2CCN(C(=O)[C@H](Cc3ccc(O)cc3)n3cc([C@@H](N)CC(C)C)nn3)CC2)nc(N2CCN(C(=O)[C@H](Cc3ccc(O)cc3)n3cc([C@@H](N)CC(C)C)nn3)CC2)n1`, the IC50 is 112 µM.
For the compound `Cc1ccc2oc(=O)c(/C=C(\O)c3ccccc3)nc2c1`, the IC50 was 46.7 µM.
As for `Cc1ccc(C(=O)NNC(=S)NC(=O)COc2ccccc2)cc1`, the IC50 is 47.5 µM.
For the compound `Cc1ccccc1C(=O)Nc1cccc(C(=O)N/N=C/c2cc(Cl)cc([N+](=O)[O-])c2O)c1`, the IC50 is 33.8 µM.
As to `Cc1cc(C)c(OCCCCNCc2ccccc2)c(Cl)c1`, the 50% inhibitory concentration (IC50) is 113 µM.
With `O=Cc1c(Cl)nc2ccccn2c1=O`, the IC50 was 132 µM.
For the compound `CCN(CCC(=O)Nc1ccc(Br)c(C)c1)Cc1ccccc1`, the concentration for half-maximal inhibition (IC50) is 79.8 µM.
With `O=C(c1cnn(C(=O)COc2ccccc2F)c1)c1cc(F)ccc1O`, the IC50 is 83.3 µM.
`O=C(c1ccccc1)c1c2c(cc3sc4ccccc4[n+]13)-c1cccc3cccc-2c13`: the IC50 was 77.3 µM.
On to `CN(Cc1ccccc1O)CC1CCCN(CCc2ccc(Cl)cc2)C1` (centres undefined), for which the IC50 was 51.6 µM.
As to `O=C(CCN1CCOCC1)c1ccc(Br)cc1`, the IC50 is 129 µM.
Regarding `COc1ccc(Nc2c3ccccc3nc3ccccc23)cc1`, the IC50 is 53.8 µM.
For `CC(=O)NC(=S)NNC(=O)c1ccc(Br)cc1`, the concentration for half-maximal inhibition (IC50) is 33.8 µM.
Turning to `CCc1cccc2c1Sc1ccccc1CC2N1CCNCC1` (centres undefined), the IC50 was 44.4 µM.
As to `Cc1nc2c(=O)n(C)c(=O)nc-2n(C)n1`, the IC50 was 0.781 µM.
Take `O=C(N/N=C\C=C\c1ccc([N+](=O)[O-])o1)c1cccs1`: the IC50 is 27.8 µM.
For `Fc1ccc(Nc2nnc(C(F)(F)F)s2)cc1Cl` the value was 38 µM; for `O=C(C[n+]1cc(-c2ccc(Cl)c(Cl)c2)n2c1CCC2)N1c2ccccc2Sc2ccccc21`, 78.2 µM.
On to `C[C@H]1COc2c(C3(N)CC3)c(F)cc3c(=O)c(C(=O)O)cn1c23`, for which the IC50 was less than 0.23 µM.
Consider `O=C1C(SCCO)=C(SCCO)C(=O)c2ccccc21`, for which the concentration for half-maximal inhibition (IC50) is 122 µM.
`CCn1cc(C(=O)O)c(=O)c2cc(F)c(N3CCN(C(=S)NC(=O)c4cc(OC)cc(OC)c4)CC3)cc21`: the IC50 is 3.11 µM.
Consider `CN1CCN(C(c2ccc(Br)cc2)c2cc(Cl)c3cccnc3c2O)CC1` (centres undefined), for which the IC50 is 33.6 µM.
On to `Cc1ccc(-c2cc(-c3ccc(C)cc3)[n+](-c3ccccc3)c(-c3ccc(C)cc3)c2)cc1`, for which the IC50 was 34.5 µM.
As to `CCCCCCCCCCOC(=O)C[N+](C)(C)CC1CCCCC1O` (centres undefined), the IC50 is 65 µM.
For the compound `CC1(C)CC(=O)c2c(nc3ccccc3c2N)C1`, the concentration for half-maximal inhibition (IC50) is 143 µM.
In the case of `CCCCCOc1ccc(C)cc1CN(CCCl)CCCl`, the IC50 is 138 µM.
Under `CC(=O)OC1=C(O)C(=O)c2ccccc2C1=O` stands 78.6 µM; under `CC(C)N1CSC(=S)N(Cc2ccccc2)C1`, 59.7 µM.
With `O=C(N/N=C/c1ccc([N+](=O)[O-])o1)C1CCCC1`, the IC50 was 37.7 µM.
For `CN(C)CC/C=C1\c2ccc(F)cc2Sc2cc(F)c(Cl)cc21` the value was 36.7 µM.
`Cc1ccc(OCc2nnc(NC(=O)c3cccnc3)s2)cc1`: the IC50 was 13.9 µM.
For the compound `Cc1ccc(Nc2cc(C)c3c(O)cccc3n2)cc1C`, the IC50 was 30.7 µM.
Consider `CN1CCN(CC(=O)N2CCn3c4c(c5cc(C6CCCCC6)ccc53)CCCC42)CC1` (centres undefined), for which the IC50 was 76.5 µM.
With `Oc1c(I)cc(Cl)c2cccnc12`, the IC50 was 8.07 µM.
For the compound `O=C(/C=C(\O)c1ccccc1)C(=O)NNC(=O)c1ccccc1`, the concentration for half-maximal inhibition (IC50) was 19.7 µM.
Under `O=C(Cn1cnc2ccccc21)Nc1ccc(SC(F)F)cc1` stands 78 µM; under `COc1ccc(NC(=O)c2[nH]ncc2[N+](=O)[O-])cc1`, 40.3 µM.
Regarding `COc1ccc(CNCCc2cccc(F)c2)c2ccccc12`, the IC50 was 81.7 µM.
Consider `CCCCCCCSc1cc(OC)c(CCN(C)C)cc1OC`, for which the IC50 is 83.5 µM.
On to `Cc1ccc(C(=O)NCCN2C3=NC[C@@H](Cc4ccccc4)N3C[C@H]2Cc2ccc(O)cc2)cc1Br`, for which the IC50 is 121 µM.
For `CN1CCC(OC(=O)c2ccc(Br)cc2)CC1` the value was 58.3 µM.
With `c1ccc(Nc2ccnc(Nc3ccccc3)n2)cc1`, the IC50 was 67.2 µM.
Regarding `CCN1/C(=C/c2cc[n+](C)cc2)C=Cc2cc(C)ccc21`, the IC50 was 78.6 µM.
As for `COc1cccc(Nc2nc(NCCO)c3ccccc3n2)c1`, the IC50 is 84.5 µM.
For `O=C1NCCN1c1ncc([N+](=O)[O-])s1` the value was 15.9 µM; for `O=C(C[n+]1cc(Br)cc2ccccc21)c1ccc(Cl)cc1`, 57.8 µM.
In the case of `O=C(N/N=C/c1sc2ccccc2c1O)c1cccc2ccccc12`, the IC50 was 26.7 µM.
In the case of `O=C(Nc1ccncc1)Nc1ccc(Cl)cc1`, the concentration for half-maximal inhibition (IC50) was 40.5 µM.
Consider `O=c1c2ccccc2nc(-c2cccc(Cl)c2)n1O`, for which the IC50 is 113 µM.
Regarding `O=C(CCc1ccccc1)NNC(=O)c1ccccn1`, the IC50 is 101 µM.
Under `NC1CCN(c2c(F)cc3c(=O)c(C(=O)O)cn(C4CC4)c3c2Cl)C1` (centres undefined) stands less than 0.23 µM.
Turning to `NC(N)=N/N=C/c1ccc(OCc2ccc(Cl)cc2)cc1`, the IC50 is 36.3 µM.
With `CCN(CCNCC(O)COc1ccccc1C(C)C)c1cccc(C)c1` (centres undefined), the IC50 is 72.6 µM.
As to `Cc1cc(C(C)(C)CC(C)(C)C)ccc1OCCOCC[N+](C)(C)Cc1ccccc1`, the IC50 is 31.6 µM.
For `NC1=NC[C@H](c2ccccc2)N1CCCCC1CCCCC1` the value was 38.5 µM; for `C#CCOCCOCCOCCNc1nc(N2CCN(C(=O)CCCCCCCCCCNC(=O)[C@H](CCCCN)n3cc(C[C@@H](C)CC)nn3)CC2)nc(N2CCN(C(=O)CCCCCCCCCCNC(=O)[C@@H]([C@H](C)O)n3cc(C)nn3)CC2)n1`, 138 µM; for `CCCCCc1ccc(OCCCC[n+]2cccc(C)c2)c(CCCCC)c1`, 103 µM.
As to `Cc1cc(NS(=O)(=O)c2ccc(NC(=S)NC(=O)c3cccnc3)cc2)no1`, the IC50 was 126 µM.
As for `O=C(Nc1ccc(Cl)cc1)Nc1ccc2c(c1)N1CCN=C1S2`, the IC50 is 57.1 µM.
On to `COc1cccc(Nc2cc(C)nc3ccccc23)c1`, for which the IC50 is 98.8 µM.
As for `Fc1ccc([C@@H]2CCNC[C@H]2COc2ccc3c(c2)OCO3)cc1`, the IC50 is 77.5 µM.
Under `COc1ccc(C(=O)NC(=S)NNC(=O)c2cnccn2)cc1OC` stands 60.1 µM; under `Cc1ccc(S(=O)(=O)NNc2ccccc2)c(C)c1`, 117 µM; under `C#CCOCCOCCOCCNc1nc(N2CCN(C(=O)[C@H](Cc3cc4ccccc4[nH]3)n3cc([C@@H](N)CC(C)C)nn3)CC2)nc(N2CCN(C(=O)[C@H](Cc3cc4ccccc4[nH]3)n3cc([C@@H](N)CC(C)C)nn3)CC2)n1`, 67.5 µM.
Under `O=Cc1ccc(O)cc1O` stands 109 µM; under `O=C(NC(=S)NNC(=O)c1cnccn1)c1ccc(F)cc1`, 25.1 µM.
Under `CCN1CCN(C2=C(NS(=O)(=O)c3ccc(Br)cc3)C(=O)c3ccccc3C2=O)CC1` stands 47.4 µM; under `Cc1cc(O)c2c(c1)C(=O)C13C(=C2O)C(=O)[C@H]2[C@@H](O)[C@@H]1[C@H]1[C@H](O)[C@@H]3C(=O)C3=C(O)c4c(O)cc(C)cc4C(=O)C312` (some centres undefined), 19.1 µM; under `Fc1ccc(CCNCc2ccc(Cl)c(Cl)c2)cc1`, 68.4 µM.
As to `c1ccc2c(NCCc3c[nH]c4ccccc34)c3ccccc3nc2c1`, the IC50 was 75.7 µM.
On to `COc1cccc(/C=N\NC(=O)Cn2nnc3ccccc32)c1O`, for which the IC50 was 97.7 µM.
On to `CCCNC1=C(C)C(=O)C2=C(C1=O)C(COC(N)=O)[C@]1(OC)C3NC3CN21` (some centres undefined), for which the IC50 was 51.8 µM.
As to `Cc1ccc(C(C[N+](=O)[O-])Sc2ccc(N)cc2)cc1` (centres undefined), the IC50 is 29.5 µM.
Under `O=C(NC(CO)C(O)c1ccc([N+](=O)[O-])cc1)C(Cl)Cl` (centres undefined) stands 2.55 µM; under `CNCC[C@H](Oc1cccc2ccccc12)c1cccs1`, 106 µM.
For `N#C/C(N=Nc1ccccc1O)=N\Nc1ccccc1O`, the IC50 was 9.47 µM.
Turning to `COc1ccc(-c2cnc(NCc3cc4c(cc3[N+](=O)[O-])OCO4)n2C)cc1`, the IC50 is 107 µM.
On to `CCc1ccc(NC(=O)C[n+]2cc(-c3ccc(C)cc3)n3c2CCC3)cc1`, for which the IC50 was 69.8 µM.
For the compound `O=C(Nc1nnc(C2COc3ccccc3O2)o1)c1ccc(F)cc1` (centres undefined), the IC50 was 40.9 µM.
As to `Cc1cc(NC(=O)c2ccc3[nH]c(C)c(C)c3c2)ccn1`, the IC50 is 144 µM.
As for `O=[N+]([O-])c1cccc(NNS(=O)(=O)c2ccccc2F)c1`, the IC50 is 8.04 µM.
For the compound `CN(C)C1C(=O)C(C(N)=O)=C(O)C2(O)C(=O)C3=C(O)c4c(O)cccc4C(C)(O)C3CC12` (centres undefined), the IC50 was 2.08 µM.
With `CCn1nc(C(=O)O)c(=O)c2cc3c(cc21)OCO3`, the IC50 is 103 µM.
Turning to `CN1CCN(C2=Cc3ccccc3Sc3cc(F)c(F)cc32)CC1`, the IC50 is 74.6 µM.
With `O=C(Nc1cccc([N+](=O)[O-])c1)Nc1cccs1`, the IC50 was 45.6 µM.
Regarding `COc1cc([N+](=O)[O-])cc(/C=N/NC(=O)CSc2ccccn2)c1O`, the IC50 was 77.7 µM.
For `COc1ccc(NC(=O)c2cc(Br)c(Br)s2)cn1`, the concentration for half-maximal inhibition (IC50) was 23.3 µM.
Turning to `Clc1cccc(/C=N\Nc2nccs2)c1`, the IC50 is 58.9 µM.
For `O=C(Oc1ccc[nH]c1=O)c1cc([N+](=O)[O-])cc([N+](=O)[O-])c1`, the IC50 was 46 µM.
Turning to `Clc1ccc(CN2C3=NCCN3c3ccccc32)cc1`, the IC50 is 89.4 µM.
For `COc1ccc(CNCC(O)COc2ccc(C(C)(C)c3ccccc3)cc2)cc1` (centres undefined) the value was 37.1 µM; for `O=C(N/N=C/c1ccc([N+](=O)[O-])s1)C(O)c1ccccc1` (centres undefined), 33.4 µM.
For the compound `NCCCC[C@H]1CN=C(N)N1CCC12CC3CC(CC(C3)C1)C2`, the concentration for half-maximal inhibition (IC50) was 131 µM.
For `O=C(c1cccs1)c1no[n+]([O-])c1C(=O)c1cccs1`, the IC50 was 14 µM.
For `O=C(CCc1ccccc1)NNC(=S)NC(=O)c1ccccc1` the value was 122 µM; for `O=c1oc2ccccc2nc1/C=C(\O)c1ccccc1`, 23.9 µM.
As for `c1ccc(-c2nc3ccccc3[nH]2)cc1`, the IC50 was 75 µM.

The values above are taken from PubChem BioAssay AID1985 (Southern Research Specialized Biocontainment Screening …, 2009).
